Source: US20240067632A1, “WEE1 Degrading Compounds and Uses Thereof” (Bristol-Myers Squibb Company, priority 2022, published 2024)
pEC50: −log10 of the molar value.

Tests used:
WEE1 = molecular target: T1, WEE1 (Homo sapiens, UniProt P30291+Q96SW2); test: WEE1-ePL degradation assay (LentiX-WEE1-ePL-GSPT1-ND cells, InCELL Hunter luminescence, 4 h); type: cell-based; conditions: 293T-LentiX WEE1-ePL cells; for 293T-LentiX WEE1-ePL Degradation 4 hr (Ymin): lower limit of the fit (0 = luciferase inhibitor, Ymax = DMSO control); for DC50: read-out: 293T-LentiX WEE1-ePL Degradation 4 hr (EC50)
T1 construct: C-terminal ePL-tagged (DiscoverX, Fremont, CA) full-length WEE1 expression construct; expressed in transfected cells; host or cells: LentiX-HEK293T (Invitrogen), lentiviral transduction; co-expressing GSPT1-GN (G576N, lacking the first 158 amino acids)
Method in brief: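 First, compounds were pre-plated as 10-point, 3-fold dilutions (top 1 uM or 10 uM) with DMSO control; next, WEE1-ePL-expressing HEK293T cells were added and held 4 h at 37 °C; finally, InCELL Hunter reagent was applied for 30 min before luminescence reading. A 4PL fit gave EC50 and Ymin.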

MKN45 cells = test: MKN45 cell proliferation assay (Cell-Titer-Glo, 120 h); type: cell-based; conditions: for pEC50: Homo sapiens, MKN-45, 120 h, Cell-Titer-Glo, growth inhibition, read-out: MKN45 Cell Prolif. 120 hr (EC50); for MKN45 Cell Prolif. 120 hr (Ymin-Obs): minimal percent of DMSO control observed in the concentrations tested
Procedure: MKN45 cells were obtained from Celgene internal cell banks and cultured in RPMI complete media (RPMI-1640, 1× Penicillin/Streptomycin, 1× glutamine, 1× Sodium Pyruvate, Non-essential Amino Acids, 10% Fetal Bovine serum, all component from Thermo-Fisher). Compounds were dispensed into 384-well plates using an HP DE300 compound printer in triplicate with 8 compounds on each plate. For each compound, a 10-point dose response was printed at half-log dilutions starting at either 1 uM or 10 uM. The DMSO concentration was kept constant for a final assay concentration of 0.1% per well assuming 50 ul final media volume. Compound plates were sealed and frozen at −20 C until use.
For each assay batch, compound plates were thawed and allowed to reach room temperature, and cells were seeded at 400 cells per well in 50 ul complete RPMI media. After 120 hours of incubation at 37 C and 5% CO2, cells were lysed by addition of 25 μL of Cell-Titer-Glo Reagent (Promega Corporation, Madison, WI), as per manufacturer's instructions, protected from light, shaken for 45 minutes, and total luminescence read by a Perkin Elmer Envision plate reader. Total luminescence signal is linearly correlated with cell number remaining in the well.
Luminescence data was processed per plate by subtracting reagent-only “blank” well luminescence from all measured values and calculating a percent of DMSO control value for each treatment well. Then, to determine the half-maximal effective concentration (EC50) values for cell growth inhibition, a four parameter logistic model was fit to the data for each DMSO-normalized compound: Sigmoidal Dose-Response Model: (FIT=(A+((B−A)/1+((C/x)^D)))) where C is the inflection point (EC50), D is the Hill slope, and A and B are the low and high limits of the fit respectively. The lower limit of the fit (value A) is referred to as Ymin-calculated. The minimal percent of DMSO control that is observed in the concentrations tested for each compound is labeled as “Ymin-obs”, and was recorded and reported in the tables. Sigmoidal fit curves were processed and evaluated using Activity Base (IDBS, Alameda, CA).

293T-LentiX WEE1-ePL Degradation 4 hr (Ymin) (WEE1)	DC50 (WEE1) [µM]	pEC50 (MKN45 cells)	SMILES	MKN45 Cell Prolif. 120 hr (Ymin-Obs) (MKN45 cells)
33	0.00103	9.48	O=C1CCC(N2Cc3cc(O[C@H]4CCN(Cc5ccc6nc([C@H]7CC[C@@H](O)CC7)ccc6c5)C4)ccc3C2=O)C(=O)N1 (stereo partly drawn) [3-(1-oxo-5-{[(3S)-1-({2-[(1s,4s)-4-hydroxycyclohexyl]quinolin-6-yl}methyl)pyrrolidin-3-yl]oxy}-2,3-dihydro-1H-isoindol-2-yl)piperidine-2,6-dione]	7.956
30	0.00112	8.94	CO[C@H]1CC[C@@H](c2ccc3cc(CN4CC[C@H](Oc5ccc6c(c5)CN(C5CCC(=O)NC5=O)C6=O)C4)ccc3n2)CC1 (stereo partly drawn) [3-(1-oxo-5-{[(3S)-1-({2-[(1s,4s)-4-methoxycyclohexyl]quinolin-6-yl}methyl)pyrrolidin-3-yl]oxy}-2,3-dihydro-1H-isoindol-2-yl)piperidine-2,6-dione]	9.583
29	0.00271	8.22	O=C1CCC(N2Cc3cc(O[C@H]4CCN(Cc5ccc6nc([C@H]7CCOC7)ccc6c5)C4)ccc3C2=O)C(=O)N1 (stereo partly drawn) [3-(1-oxo-5-{[(3S)-1-({2-[(3R)-oxolan-3-yl]quinolin-6-yl}methyl)pyrrolidin-3-yl]oxy}-2,3-dihydro-1H-isoindol-2-yl)piperidine-2,6-dione]	8.454
30	0.00241	8.61	O=C1CCC(N2Cc3cc(O[C@H]4CCN(Cc5ccc6nc([C@@H]7CCOC7)ccc6c5)C4)ccc3C2=O)C(=O)N1 (stereo partly drawn) [3-(1-oxo-5-{[(3S)-1-({2-[(3S)-oxolan-3-yl]quinolin-6-yl}methyl)pyrrolidin-3-yl]oxy}-2,3-dihydro-1H-isoindol-2-yl)piperidine-2,6-dione]	8.77
36	0.00651	8.47	CC(C)OCc1ccc2cc(CN3CC[C@H](Oc4ccc5c(c4)CN(C4CCC(=O)NC4=O)C5=O)C3)ccc2n1 (stereo partly drawn) [3-(1-oxo-5-{[(3S)-1-({2-[(propan-2-yloxy)methyl]quinolin-6-yl}methyl)pyrrolidin-3-yl]oxy}-2,3-dihydro-1H-isoindol-2-yl)piperidine-2,6-dione]	8.147
44	0.0389	6.31	O=C1CCC(N2Cc3cc(O[C@H]4CCN(Cc5ccnc6c5CCCO6)C4)ccc3C2=O)C(=O)N1 (stereo partly drawn) [3-(1-oxo-5-{[(3S)-1-({2H,3H,4H-pyrano[2,3-b]pyridin-5-yl}methyl)pyrrolidin-3-yl]oxy}-2,3-dihydro-1H-isoindol-2-yl)piperidine-2,6-dione]	27.04
33.245	0.0354	5.95	O=C1CCC(N2Cc3cc(O[C@H]4CCN(Cc5cnc6c(c5)CCCO6)C4)ccc3C2=O)C(=O)N1 (stereo partly drawn) [3-(1-oxo-5-{[(3S)-1-({2H,3H,4H-pyrano[2,3-b]pyridin-6-yl}methyl)pyrrolidin-3-yl]oxy}-2,3-dihydro-1H-isoindol-2-yl)piperidine-2,6-dione]	23.52
29.38	0.0246	7.16	O=C1CCC(N2Cc3cc(O[C@H]4CCN(Cc5cncc6c5CCCO6)C4)ccc3C2=O)C(=O)N1 (stereo partly drawn) [3-(1-oxo-5-{[(3S)-1-({2H,3H,4H-pyrano[2,3-c]pyridin-5-yl}methyl)pyrrolidin-3-yl]oxy}-2,3-dihydro-1H-isoindol-2-yl)piperidine-2,6-dione]	11.03
33	0.0123	6.81	O=C1CCC(N2Cc3cc(O[C@H]4CCN(Cc5cc6c(cn5)OCCC6)C4)ccc3C2=O)C(=O)N1 (stereo partly drawn) [3-(1-oxo-5-{[(3S)-1-({2H,3H,4H-pyrano[2,3-c]pyridin-6-yl}methyl)pyrrolidin-3-yl]oxy}-2,3-dihydro-1H-isoindol-2-yl)piperidine-2,6-dione]	12.988
36	0.0161	6.91	O=C1CCC(N2Cc3cc(O[C@H]4CCN(Cc5nccc6c5CCCO6)C4)ccc3C2=O)C(=O)N1 (stereo partly drawn) [3-(1-oxo-5-{[(3S)-1-({2H,3H,4H-pyrano[3,2-c]pyridin-5-yl}methyl)pyrrolidin-3-yl]oxy}-2,3-dihydro-1H-isoindol-2-yl)piperidine-2,6-dione]	16.99
30	0.0273	6.60	O=C1CCC(N2Cc3cc(O[C@H]4CCN(Cc5cnc6c(c5)CCOC6)C4)ccc3C2=O)C(=O)N1 (stereo partly drawn) [3-(1-oxo-5-{[(3S)-1-({5H,6H,8H-pyrano[3,4-b]pyridin-3-yl}methyl)pyrrolidin-3-yl]oxy}-2,3-dihydro-1H-isoindol-2-yl)piperidine-2,6-dione]	8.89
51	0.0627	5.89	O=C1CCC(N2Cc3cc(O[C@H]4CCN(Cc5ccnc6c5CCOC6)C4)ccc3C2=O)C(=O)N1 (stereo partly drawn) [3-(1-oxo-5-{[(3S)-1-({5H,6H,8H-pyrano[3,4-b]pyridin-4-yl}methyl)pyrrolidin-3-yl]oxy}-2,3-dihydro-1H-isoindol-2-yl)piperidine-2,6-dione]	56.39
35	0.0399	6.34	O=C1CCC(N2Cc3cc(O[C@H]4CCN(Cc5cnc6c(c5)COCC6)C4)ccc3C2=O)C(=O)N1 (stereo partly drawn) [3-(1-oxo-5-{[(3S)-1-({5H,7H,8H-pyrano[4,3-b]pyridin-3-yl}methyl)pyrrolidin-3-yl]oxy}-2,3-dihydro-1H-isoindol-2-yl)piperidine-2,6-dione]	11.67
28	0.00199	8.47	O=C1CCC(N2Cc3cc(O[C@H]4CCN(Cc5cc6cc([C@H]7CCOC7)ccc6cn5)C4)ccc3C2=O)C(=O)N1 (stereo partly drawn) [3-(1-oxo-5-{[(3S)-1-({6-[(3R)-oxolan-3-yl]isoquinolin-3-yl}methyl)pyrrolidin-3-yl]oxy}-2,3-dihydro-1H-isoindol-2-yl)piperidine-2,6-dione]	6.69
28	0.00539	7.89	O=C1CCC(N2Cc3cc(O[C@H]4CCN(Cc5cc6cc([C@@H]7CCOC7)ccc6cn5)C4)ccc3C2=O)C(=O)N1 (stereo partly drawn) [3-(1-oxo-5-{[(3S)-1-({6-[(3S)-oxolan-3-yl]isoquinolin-3-yl}methyl)pyrrolidin-3-yl]oxy}-2,3-dihydro-1H-isoindol-2-yl)piperidine-2,6-dione]	5.87
28	0.00141	8.53	O=C1CCC(N2Cc3cc(O[C@H]4CCN(Cc5cc6ccc([C@H]7CCOC7)cc6cn5)C4)ccc3C2=O)C(=O)N1 (stereo partly drawn) [3-(1-oxo-5-{[(3S)-1-({7-[(3R)-oxolan-3-yl]isoquinolin-3-yl}methyl)pyrrolidin-3-yl]oxy}-2,3-dihydro-1H-isoindol-2-yl)piperidine-2,6-dione]	8.5
